Test results from ChEMBL document CHEMBL1147397, “Biemnasterol, a new cytotoxic sterol with the rare 22,25-diene side chain, isolated from the marine sponge Biemna sp” (J Nat Prod, 1993).
Converted amounts (≈) assume the structure as drawn.

Columns and labels:
KB = experiment: Cytotoxicity against human KB cells; assay type: functional, cell-based
L1210 = experiment: Cytotoxicity against mouse L1210 cells; assay type: functional, cell-based

Compound C=C(C)[C@H](C)/C=C/[C@@H](C)[C@H]1CC[C@H]2C3=C[C@@H](O)[C@@]4(O)C[C@@H](O)CC[C@]4(C)[C@H]3CC[C@]12C [BIEMNASTEROL] has an IC50 (KB) of 1.3 µg/mL (≈ 3.03 µM) and an IC50 (L1210) of 3 µg/mL (≈ 7 µM).
